Experimental data taken from ChEMBL document CHEMBL3988181, “GlaxoSmithKline Published Kinase Inhibitor Set 2 Onchocerca lienalis Screening Data”.

test: GSK PKIS2: Screen against O. lienalis microfilariae, single point, at 3.1uM to assess reduction in motility. Compounds were also tested for cytotoxicity against Rhesus Monkey LLCMK2 cells.; format: functional, Onchocerca lienalis, LLC-MK2; details: CELL_LINE LLCMK2; CELL_SUPPLIER ECACC; CONC 3.1 uM; ORGANISM_SUPPLIER Extracted from peri-umbilical skin obtained from naturally infected cattle in the UK; temperature 37 degree C

In order of rising “MOTILITY REDUCTION/CYTOTOXICITY” value:
1. Fc1ccc(-c2ncn(CCCN3CCOCC3)c2-c2cccnc2)cc1  0%
2. CSc1ccc(NC2=C(c3ccccc3Cl)C(=O)NC2=O)cc1  0%
3. O=C1NC(=O)C(c2ccccc2)=C1Nc1ccc(Cl)c(C(=O)O)c1  0%
4. CNc1ncnc2[nH]ncc12  0%
5. Cc1ccc2c(-c3ccnc(Nc4ccc(C(F)(F)F)cc4)n3)cnn2n1  0%
6. CCn1c(-c2nonc2N)nc2cncc(CNC3CCNCC3)c21  0%
7. CCn1c(-c2c(N)noc2C)nc2cnccc21  0%
8. Cn1cc(-c2ccc3c(c2)CCN3C(=O)Cc2cc(F)cc(C(F)(F)F)c2)c2c(N)ncnc21  0%
9. O=C(Nc1n[nH]c2nc(-c3cccs3)c(Br)cc12)C1CC1  0%
10. CCn1cnc2c(NCc3ccccc3)ncnc21  0%
11. O=C1NC(=O)C(c2ccccc2Cl)=C1Nc1ccccc1  0%
12. CN(c1ccc(NC(=O)N2CCN(CCCN3CCOCC3)CC2)cc1)c1ccnc(Nc2ccc(CS(C)(=O)=O)cc2)n1  0%
13. CN1CCC(n2cnc(-c3ccc(F)cc3)c2-c2ccnc(NC3CCNCC3)n2)CC1  0%
14. CS(=O)(=O)c1ccc(-c2nc3n(c2-c2ccncc2)CCC3)cc1  0%
15. CCn1c(-c2ccncc2)nc2cnccc21  0%
16. Cc1ccc(NC(=O)c2ccnc(N3CCN(C)CC3)c2)cc1-c1ccc(C(=O)NCC2CC2)cc1  0%
17. Cc1c2ccc(N(C)c3ccnc(Nc4cccc(S(N)(=O)=O)c4)n3)cc2nn1Cc1ccccc1  0%
18. O=C(Nc1n[nH]c2nc(-c3ccco3)c(Br)cc12)c1ccc(CN2CCCC2)cc1  0%
19. CN(c1ccc2c(c1)nc(NCc1ccc(F)cc1)n2C)c1ccnc(Nc2ccc(CS(C)(=O)=O)cc2)n1  0%
20. COc1cc2nccc(Nc3ccc(OCc4ccc(NC(C)=O)cc4)cc3)c2cc1OC  0%
21. Cc1cccc(-c2nc(Nc3ccncc3)c3ccccc3n2)n1  0%
22. CN(c1ccc2c(c1)nc(NCc1ccccc1)n2C)c1ccnc(Nc2ccc(CS(C)(=O)=O)cc2)n1  0%
23. Cn1cnc2c(N)ncnc21  0%
24. CC(C)N1CCC(n2cnc(-c3ccc(F)cc3)c2-c2ccnc(N)n2)CC1  0%
25. CCOC(=O)N1CCC(n2cnc(-c3ccc(F)cc3)c2-c2ccnc(N)n2)CC1  0%
26. Fc1ccc(-c2ncn(CCCN3CCOCC3)c2-c2ccccn2)cc1  13.4%
27. CNc1nccc(-c2c(-c3ccc(F)cc3)ncn2C2CCN(C)CC2)n1  13.4%
28. O=C(Nc1n[nH]c2nc(-c3nccs3)c(Br)cc12)C1CC1  20%
29. COc1cccc(-c2ccc3c(NC(=O)C4CC4)n[nH]c3n2)c1  20%
30. Nc1nc(N)c2[nH]c(-c3ccccc3)nc2n1  20%
31. O=C1NC(=O)C(c2ccc(Cl)cc2)=C1Nc1ccc(O)c(Cl)c1  33.4%
32. COc1cccc(-c2[nH]c(-c3ccccc3)nc2-c2ccncc2)c1  33.4%
33. NS(=O)(=O)c1cccc(Nc2cc(-c3ccc(F)cc3)n[nH]2)c1  33.4%
34. CCn1c(-c2nonc2N)nc2cncc(Br)c21  33.4%
35. c1ccc(-c2ccnc3[nH]ccc23)cc1  33.4%
36. FC(F)(F)c1ccc(-c2ncn(CCCN3CCOCC3)c2-c2ccncc2)cc1  40%
37. COc1cc(Nc2ncc3c(C)nc(-c4cc5ccccc5[nH]4)n3n2)cc(OC)c1OC  53.4%
38. CN1CCN(Cc2ccc(NC(=O)Nc3ccc(N(C)c4ccnc(Nc5ccc(CS(C)(=O)=O)cc5)n4)cc3)cc2)CC1  100%
39. FC(F)(F)c1ccc(/C=C/c2cncnc2Nc2ccc3[nH]c(Cc4ccccc4)nc3c2)cc1  100%
